Earlier results as cited in patent publication US20160083345A1, “POLYMORPHIC FORMS OF LOMITAPIDE AND ITS SALTS AND PROCESSES FOR THEIR PREPARATION” (CADILA HEALTHCARE LIMITED, priority 2014, published 2016).
Where a name gives a salt, the structure may show the parent alone. Read-outs that look alike come from different tables or passages of the source.

solubility (1-octanol): sparingly soluble
solubility (2-butanol): soluble
solubility (2-propanol): sparingly soluble
solubility (acetone): freely soluble
solubility (acetonitrile): soluble
solubility (aqueous solutions of pH 2 to 5): slightly soluble
solubility (ethanol): freely soluble
solubility (ethyl acetate): slightly soluble
solubility (heptane): insoluble
solubility (methanol): freely soluble
solubility (methylene chloride): soluble
SMILES: O=C(NC1CCN(CCCCC2(C(=O)NCC(F)(F)F)c3ccccc3-c3ccccc32)CC1)c1ccccc1-c1ccc(C(F)(F)F)cc1 [Lomitapide mesylate, N-(2,2,2-trifluoroethyl)-9-[4-[4-[[[4′(trifluoromethyl)[1,1′-biphenyl]-2-yl]carbonyl]amino]-1-piperidinyl]butyl]-9H-fluorene-9carboxamide methanesulfonate]
